For ten compounds, Kd results are on record in ChEMBL document CHEMBL4725420, “Selective DYRK1A Inhibitor for the Treatment of Neurodegenerative Diseases: Alzheimer, Parkinson, Huntington, and Down Syndrome” (ACS Med Chem Lett, 2020).

One may read the Kd as a measure of binding affinity in units of concentration. Read a low Kd as higher affinity.

The target in the assay is Dual specificity tyrosine-phosphorylation-regulated kinase 1A (Homo sapiens, UniProt Q13627). The assay can be described thus: Binding affinity to DYRK1A (unknown origin).
`NC(=O)c1ccc(-n2cnc3ccc(-c4ccncc4)c(F)c32)nc1` came in with a Kd of 0.5 nM. In other words, the sub-nanomolar range.

Compound `O=C(O)c1ccc(-n2cnc3ccc(-c4ccncc4)nc32)cc1` returned a Kd of 0.5 nM. This counts as sub-nanomolar.

`CC(=O)N1C[C@@H]2[C@H](C1)[C@H]2n1c(C)nc2ccc(-c3ccncc3)nc21` came in with a Kd of 0.5 nM.

In the case of `Fc1c(-c2ccncc2)ccc2ncn(-c3ccc4c(c3)OCO4)c12`, the Kd is 0.5 nM.

`CC(=O)N1CC[C@H](n2c(C)nc3ccc(-c4ccncc4)nc32)C1`: binding was put at a Kd of 101 nM.

Consider `c1cc(-c2ccc3ncn(-c4ccc5c(c4)OCO5)c3n2)ccn1`, for which the Kd was 0.5 nM.

`Cc1nc2ccc(-c3ccncc3)nc2n1-c1ccc2c(c1)OCC(=O)N2` returned a Kd of 0.5 nM.

As for `COC(=O)c1ccc(-n2cnc3ccc(-c4ccncc4)c(F)c32)cc1`, binding was characterised by a dissociation constant (Kd) of 0.5 nM.

With `Cc1nc2ccc(-c3cnn(C4CC4)c3)nc2n1-c1ccc(N2CCOCC2)c(F)c1`, the Kd was 0.5 nM.

Turning to `Cc1nc2ccc(-c3ccncc3)nc2n1-c1ccc(CN2CCOCC2)cc1`, the Kd is 0.5 nM.
